Values belong to the compound of their own block, whether it stands above or below them.
Tested on: 624824-186-R-J3-PDC multicell spheroids, viability
Test: Anticancer human tumor 624824-186-R-J3-PDC patient-derived colon adenocarcinoma cell line growth inhibition [PI3K]
Conditions: for IC50: curve of first compound; for viability, T/C: stronger effect = lower value
Summary of the method: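 Viability of mixed-cell spheroids was determined after exposure to pairwise combinations, one partner being inavolisib, alpelisib, duvelisib or copanlisib. Highest tested concentration matched clinical Cmax where known and 10 microM where not, descending in half-log steps.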

[1] = second compound 0.0316 µM, first compound 0.0316 µM
[2] = second compound 0.0316 µM, first compound 0.1 µM
[3] = second compound 0.0316 µM, first compound 0.316 µM
[4] = second compound 0.0316 µM, first compound 1 µM
[5] = second compound 0.0316 µM, first compound 3.16 µM
[6] = second compound 0.0316 µM, first compound 10 µM
[7] = second compound 0.1 µM, first compound 0.0316 µM
[8] = second compound 0.1 µM, first compound 0.1 µM
[9] = second compound 0.1 µM, first compound 0.316 µM
[10] = second compound 0.1 µM, first compound 1 µM
[11] = second compound 0.1 µM, first compound 3.16 µM
[12] = second compound 0.1 µM, first compound 10 µM
[13] = second compound 0.316 µM, first compound 0.0316 µM
[14] = second compound 0.316 µM, first compound 0.1 µM
[15] = second compound 0.316 µM, first compound 0.316 µM
[16] = second compound 0.316 µM, first compound 1 µM
[17] = second compound 0.316 µM, first compound 3.16 µM
[18] = second compound 0.316 µM, first compound 10 µM
[19] = second compound 1 µM, first compound 0.0316 µM
[20] = second compound 1 µM, first compound 0.1 µM
[21] = second compound 1 µM, first compound 0.316 µM
[22] = second compound 1 µM, first compound 1 µM
[23] = second compound 1 µM, first compound 3.16 µM
[24] = second compound 1 µM, first compound 10 µM
[25] = second compound 3.16 µM, first compound 0.0316 µM
[26] = second compound 3.16 µM, first compound 0.1 µM
[27] = second compound 3.16 µM, first compound 0.316 µM
[28] = second compound 3.16 µM, first compound 1 µM
[29] = second compound 3.16 µM, first compound 3.16 µM
[30] = second compound 3.16 µM, first compound 10 µM
[31] = second compound 10 µM, first compound 0.0316 µM
[32] = second compound 10 µM, first compound 0.1 µM
[33] = second compound 10 µM, first compound 0.316 µM
[34] = second compound 10 µM, first compound 1 µM
[35] = second compound 10 µM, first compound 3.16 µM
[36] = second compound 10 µM, first compound 10 µM
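Note: spheroids exposed to agents for seven days before luminescence read.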
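Throughout, for viability, T/C: luminescent signal used as a stand-in for spheroid viability; percent viability relative to DMSO vehicle control wells taken as 100%.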

IC50 (second compound 0.0316 µM): 5140 nM | IC50 (second compound 0.1 µM): 4630 nM | IC50 (second compound 0.316 µM): 3750 nM | IC50 (second compound 1 µM): 1990 nM | IC50 (second compound 3.16 µM): 525 nM | IC50 (second compound 10 µM): 86.6 nM
Compound: CCCS(=O)(=O)Nc1ccc(F)c(C(=O)c2c[nH]c3ncc(-c4ccc(Cl)cc4)cc23)c1F + Cc1nc(NC(=O)N2CCCC2C(N)=O)sc1-c1ccnc(C(C)(C)C(F)(F)F)c1
viability, T/C [1]: 108% | viability, T/C [2]: 92.1% | viability, T/C [3]: 103% | viability, T/C [4]: 92.6% | viability, T/C [5]: 80.5% | viability, T/C [6]: 10.2% | viability, T/C [7]: 95.6% | viability, T/C [8]: 88.1% | viability, T/C [9]: 94.6% | viability, T/C [10]: 82.1% | viability, T/C [11]: 69.7% | viability, T/C [12]: 12.8% | viability, T/C [13]: 115% | viability, T/C [14]: 87.9% | viability, T/C [15]: 80.7% | viability, T/C [16]: 73.7% | viability, T/C [17]: 68.4% | viability, T/C [18]: 14.6% | viability, T/C [19]: 84.6% | viability, T/C [20]: 89.8% | viability, T/C [21]: 62% | viability, T/C [22]: 65.2% | viability, T/C [23]: 43.7% | viability, T/C [24]: 13.7% | viability, T/C [25]: 77.6% | viability, T/C [26]: 64.8% | viability, T/C [27]: 52% | viability, T/C [28]: 44.6% | viability, T/C [29]: 34.7% | viability, T/C [30]: 9.51% | viability, T/C [31]: 57% | viability, T/C [32]: 50.5% | viability, T/C [33]: 36.1% | viability, T/C [34]: 31.8% | viability, T/C [35]: 26.6% | viability, T/C [36]: 6.93%

IC50 (second compound 0.0316 µM): > 10000 nM | IC50 (second compound 0.1 µM): > 10000 nM | IC50 (second compound 0.316 µM): > 10000 nM | IC50 (second compound 1 µM): > 10000 nM | IC50 (second compound 3.16 µM): 4570 nM | IC50 (second compound 10 µM): 660 nM
Compound: C[C@@H](NC(=O)c1ncnc(N)c1Cl)c1ncc(C(=O)Nc2cc(C(F)(F)F)c(Cl)cn2)s1 + Cc1nc(NC(=O)N2CCCC2C(N)=O)sc1-c1ccnc(C(C)(C)C(F)(F)F)c1
viability, T/C [1]: 108% | viability, T/C [2]: 99.1% | viability, T/C [3]: 102% | viability, T/C [4]: 97% | viability, T/C [5]: 98.8% | viability, T/C [6]: 103% | viability, T/C [7]: 111% | viability, T/C [8]: 106% | viability, T/C [9]: 98.6% | viability, T/C [10]: 103% | viability, T/C [11]: 109% | viability, T/C [12]: 91% | viability, T/C [13]: 101% | viability, T/C [14]: 114% | viability, T/C [15]: 99% | viability, T/C [16]: 98.6% | viability, T/C [17]: 106% | viability, T/C [18]: 72.6% | viability, T/C [19]: 104% | viability, T/C [20]: 110% | viability, T/C [21]: 99.1% | viability, T/C [22]: 97.8% | viability, T/C [23]: 86.5% | viability, T/C [24]: 52.4% | viability, T/C [25]: 91.5% | viability, T/C [26]: 85.5% | viability, T/C [27]: 82.7% | viability, T/C [28]: 75.8% | viability, T/C [29]: 59.1% | viability, T/C [30]: 30.7% | viability, T/C [31]: 74.1% | viability, T/C [32]: 76.4% | viability, T/C [33]: 56% | viability, T/C [34]: 46.2% | viability, T/C [35]: 29.6% | viability, T/C [36]: 21.5%

IC50 (second compound 0.0316 µM): > 100 nM | IC50 (second compound 0.1 µM): > 100 nM | IC50 (second compound 0.316 µM): > 100 nM | IC50 (second compound 1 µM): > 100 nM | IC50 (second compound 3.16 µM): > 100 nM | IC50 (second compound 10 µM): > 100 nM
Compound: Cn1ncnc1[C@H]1c2n[nH]c(=O)c3cc(F)cc(c23)N[C@@H]1c1ccc(F)cc1 + Cc1nc(NC(=O)N2CCCC2C(N)=O)sc1-c1ccnc(C(C)(C)C(F)(F)F)c1
viability, T/C (second compound 0.0316 µM, first compound 0.000316 µM): 106% | viability, T/C (second compound 0.0316 µM, first compound 0.001 µM): 106% | viability, T/C (second compound 0.0316 µM, first compound 0.00316 µM): 101% | viability, T/C (second compound 0.0316 µM, first compound 0.01 µM): 108% | viability, T/C [1]: 111% | viability, T/C [2]: 96.7% | viability, T/C (second compound 0.1 µM, first compound 0.000316 µM): 104% | viability, T/C (second compound 0.1 µM, first compound 0.001 µM): 108% | viability, T/C (second compound 0.1 µM, first compound 0.00316 µM): 111% | viability, T/C (second compound 0.1 µM, first compound 0.01 µM): 101% | viability, T/C [7]: 101% | viability, T/C [8]: 102% | viability, T/C (second compound 0.316 µM, first compound 0.000316 µM): 102% | viability, T/C (second compound 0.316 µM, first compound 0.001 µM): 115% | viability, T/C (second compound 0.316 µM, first compound 0.00316 µM): 102% | viability, T/C (second compound 0.316 µM, first compound 0.01 µM): 103% | viability, T/C [13]: 105% | viability, T/C [14]: 98.8% | viability, T/C (second compound 1 µM, first compound 0.000316 µM): 96.6% | viability, T/C (second compound 1 µM, first compound 0.001 µM): 106% | viability, T/C (second compound 1 µM, first compound 0.00316 µM): 110% | viability, T/C (second compound 1 µM, first compound 0.01 µM): 83.9% | viability, T/C [19]: 101% | viability, T/C [20]: 99% | viability, T/C (second compound 3.16 µM, first compound 0.000316 µM): 81% | viability, T/C (second compound 3.16 µM, first compound 0.001 µM): 83% | viability, T/C (second compound 3.16 µM, first compound 0.00316 µM): 90.8% | viability, T/C (second compound 3.16 µM, first compound 0.01 µM): 87% | viability, T/C [25]: 91.8% | viability, T/C [26]: 83.6% | viability, T/C (second compound 10 µM, first compound 0.000316 µM): 70% | viability, T/C (second compound 10 µM, first compound 0.001 µM): 74.3% | viability, T/C (second compound 10 µM, first compound 0.00316 µM): 70.7% | viability, T/C (second compound 10 µM, first compound 0.01 µM): 66.7% | viability, T/C [31]: 67.7% | viability, T/C [32]: 76.9%

Reference: PubChem BioAssay AID1963977 (Molecular Pharmacology Branch, DTP, NCI, 2024)
